Patent US20240116985A1, “STAPLED PEPTIDES AND METHODS THEREOF” (priority 2020, published 2024)

How the values were obtained:
CHI Log D procedure = format: physicochemical; details: for CHI Log D: pH 7.4; for chromatographic logD: pH 7.4, CHI Log D
[1] = target: T1, full-length B-Catenin (Uniprot ID P35222) (Homo sapiens, UniProt P35222); assay: Alphascreen binding assay (beta-catenin / biotin-TCF4 10-53)
T1 construct: 65 nM full-length B-Catenin (Uniprot ID P35222)
T1 sequence (P35222 1-781): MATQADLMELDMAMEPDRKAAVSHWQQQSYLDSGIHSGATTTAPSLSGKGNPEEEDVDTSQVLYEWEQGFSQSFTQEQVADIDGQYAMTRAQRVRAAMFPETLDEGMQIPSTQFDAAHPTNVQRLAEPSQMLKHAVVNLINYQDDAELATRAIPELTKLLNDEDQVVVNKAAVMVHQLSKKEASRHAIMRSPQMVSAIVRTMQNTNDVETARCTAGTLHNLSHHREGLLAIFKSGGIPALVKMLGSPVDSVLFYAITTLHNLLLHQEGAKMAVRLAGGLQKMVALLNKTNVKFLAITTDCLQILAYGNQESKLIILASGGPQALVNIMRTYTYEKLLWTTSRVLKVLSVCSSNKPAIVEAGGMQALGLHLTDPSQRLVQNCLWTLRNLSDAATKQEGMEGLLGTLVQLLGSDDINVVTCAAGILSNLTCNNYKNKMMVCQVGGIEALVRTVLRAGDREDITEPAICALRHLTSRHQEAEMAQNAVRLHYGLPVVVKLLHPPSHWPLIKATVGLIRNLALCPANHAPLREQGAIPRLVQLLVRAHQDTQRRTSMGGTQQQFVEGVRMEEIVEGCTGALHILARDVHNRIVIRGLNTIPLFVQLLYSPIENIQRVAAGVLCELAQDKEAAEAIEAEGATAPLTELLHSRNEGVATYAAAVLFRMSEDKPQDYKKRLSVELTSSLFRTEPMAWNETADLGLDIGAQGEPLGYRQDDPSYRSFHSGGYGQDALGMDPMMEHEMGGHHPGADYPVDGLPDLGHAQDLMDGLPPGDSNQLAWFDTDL
Experimental: In some embodiments, an assay is an Alphascreen binding assay. A useful protocol is described below as an example.
Alphascreen binding assay: Using the AlphaScreen Histidine (Nickel Chelate) Detection Kit (PerkinElmer), peptide solutions were prepared in buffer (50 mM Tris pH 8.0, 250 mM NaCl, 2% glycerol, 0.03% Tween-20, 0.01% TritonX-100, 0.1% BSA w/v) using a 3-fold serial dilution from 10 uM to 5 nM. Probe solution (65 nM full-length B-Catenin (Uniprot ID P35222), mixed with 10 nM biotin labeled TCF4 residues 10-53 (Uniprot ID Q9NQB0) peptide in buffer) was prepared and 4 uL per well was plated in a white polystyrene 384-well plate (Corning). Equal volume of the titrated peptide was added to the plate and incubated for 15 minutes at 20° C. Then 4 uL of donor and 4 uL acceptor beads at 10 ug/mL were added to the plate, for a 16 uL reaction pool and protected from light for 60 minutes at 20° C. prior to read. Reads were performed on a CLARIOstar plate reader (BMG Labtech) in duplicate, and data were fitted to a 1:1 binding model with hill slope using an in-house script. All provided concentrations are final concentrations.

| SMILES | CHI Log D (CHI Log D procedure) | EC50 [1] [µM] | chromatographic logD (CHI Log D procedure) |
| --- | --- | --- | --- |
| COc1cccc(C[C@@H]2NC(=O)[C@H](C)NC(=O)[C@H](C)NC(=O)[C@H](CC(=O)O)NC(=O)[C@H](CC(=O)O)NC(=O)[C@](C)(NC(=O)[C@H](C)NC(=O)[C@H](CC(=O)O)NC(=O)[C@H](Cc3ccccc3)NC(C)=O)CCCCCCC=CCOC(=O)N3CC[C@@](C(=O)N[C@@H](Cc4ccccc4)C(=O)N[C@@H](Cc4c[nH]c5ccccc45)C(=O)N[C@@H](CCC(N)=O)C(N)=O)(C3)NC(=O)[C@H](C(C)C)NC2=O)c1 [I-104, Ac-Phe-Asp-Ala-R8-Asp-Asp-Ala-Ala-3OMeF-Val-PyrS-Phe-Trp-Gln-NH2] | 1.333 | 6.17 | – |
| CC(=O)N[C@@H](Cc1ccccc1)C(=O)N[C@@H](CC(=O)O)C(=O)N[C@@H](C)C(=O)N[C@]1(C)CCCCCCC=CCOC(=O)N2CC[C@@](C(=O)N[C@@H](Cc3ccccc3)C(=O)N[C@@H](Cc3c[nH]c4ccccc34)C(=O)N[C@@H](CCC(N)=O)C(N)=O)(C2)NC(=O)[C@H](C(C)C)NC(=O)[C@H](Cc2ccc3ccccc3c2)NC(=O)[C@H](C)NC(=O)[C@H](C)NC(=O)[C@H](CC(=O)O)NC(=O)[C@H](CC(=O)O)NC1=O [I-113, Ac-Phe-Asp-Ala-R8-Asp-Asp-Ala-Ala-2NapA-Val-PyrS-Phe-Trp-Gln-NH2] | 1.435 | 6.2 | – |
| CC(=O)N1CCC[C@]12CC=CCCCC1(CCCC=CCCCCCC[C@@](C)(C(=O)N[C@@H](Cc3ccccc3)C(=O)N[C@@H](Cc3c[nH]c4ccccc34)C(=O)N[C@@H](CCC(N)=O)C(N)=O)NC(=O)[C@H](C(C)C)NC(=O)[C@H](Cc3ccccc3)NC(=O)[C@H](C)NC(=O)[C@H](C)NC(=O)[C@H](CC(N)=O)NC(=O)[C@H](CC(=O)O)NC1=O)NC(=O)[C@H](C)NC(=O)[C@H](CC(=O)O)NC2=O (stereo partly drawn) [I-124, Ac-PL3-Asp-Ala-B5-Asp-Asn-Ala-Ala-Phe-Val-S8-Phe-Trp-Gln-NH2] | 2.252 | 1.28 | – |
| CC(=O)N1CCC[C@]12CC=CCCCC1(CCCC=CCCCCCC[C@@](C)(C(=O)N[C@@H](Cc3ccccc3)C(=O)N[C@@H](Cc3c[nH]c4ccccc34)C(=O)N[C@@H](CCC(N)=O)C(N)=O)NC(=O)[C@H](C(C)C)NC(=O)[C@H](Cc3ccccc3)NC(=O)[C@H](C)NC(=O)[C@H](C)NC(=O)[C@H](CCC(N)=O)NC(=O)[C@H](CC(=O)O)NC1=O)NC(=O)[C@H](C)NC(=O)[C@H](CC(=O)O)NC2=O (stereo partly drawn) [I-126, Ac-PL3-Asp-Ala-B5-Asp-Gln-Ala-Ala-Phe-Val-S8-Phe-Trp-Gln-NH2] | 2.239 | 1.48 | – |
| CC(=O)N1CCC[C@]12CC=CCCCC1(CCCC=CCOC(=O)N(C)CCC[C@@](C)(C(=O)N[C@@H](Cc3ccccc3)C(=O)N[C@@H](Cc3c[nH]c4ccccc34)C(=O)N[C@@H](CCC(N)=O)C(N)=O)NC(=O)[C@H](C(C)C)NC(=O)[C@H](Cc3ccccc3)NC(=O)[C@H](C)NC(=O)[C@H](C)NC(=O)[C@H](CCC(=O)O)NC(=O)[C@H](CC(=O)O)NC1=O)NC(=O)[C@H](C)NC(=O)[C@H](CC(=O)O)NC2=O (stereo partly drawn) [I-130, Ac-PL3-Asp-Ala-B5-Asp-Glu-Ala-Ala-Phe-Val-SeN-Phe-Trp-Gln-NH2] | 1.346 | 0.797 | – |
| CC(=O)N1CCC[C@]12CC=CCCCC1(CCCC=CCCCCCC[C@@](C)(C(=O)N[C@@H](Cc3ccccc3)C(=O)N[C@@H](Cc3c[nH]c4ccccc34)C(=O)NC(C)(C)C(N)=O)NC(=O)[C@H](C(C)C)NC(=O)[C@H](Cc3ccccc3)NC(=O)[C@H](C)NC(=O)[C@H](C)NC(=O)[C@H](CCC(=O)O)NC(=O)[C@H](CC(=O)O)NC1=O)NC(=O)[C@H](C)NC(=O)[C@H](CC(=O)O)NC2=O (stereo partly drawn) [I-133, Ac-PL3-Asp-Ala-B5-Asp-Glu-Ala-Ala-Phe-Val-S8-Phe-Trp-Aib-NH2] | 2.383 | 0.495 | – |
| CC(=O)N1CCC[C@]12CC=CCCCC1(CCCC=CCCCCCC[C@@](C)(C(=O)N[C@@H](Cc3ccccc3)C(=O)N[C@@](C)(Cc3c[nH]c4ccccc34)C(=O)N[C@@H](CCC(N)=O)C(N)=O)NC(=O)[C@H](C(C)C)NC(=O)[C@H](Cc3ccccc3)NC(=O)[C@H](C)NC(=O)[C@H](C)NC(=O)[C@H](CCC(=O)O)NC(=O)[C@H](CC(=O)O)NC1=O)NC(=O)[C@H](C)NC(=O)[C@H](CC(=O)O)NC2=O (stereo partly drawn) [I-136, Ac-PL3-Asp-Ala-B5-Asp-Glu-Ala-Ala-Phe-Val-S8-Phe-aMeW-Gln-NH2] | 2.136 | 3.3 | – |
| CC(=O)N1CCC[C@]12CC=CCCCC1(CCCC=CCCCCCC[C@@](C)(C(=O)N[C@@H](Cc3ccccc3)C(=O)N[C@@H](Cc3ccc4ccccc4c3)C(N)=O)NC(=O)[C@H](C(C)C)NC(=O)[C@H](Cc3ccccc3)NC(=O)[C@H](C)NC(=O)[C@H](C)NC(=O)[C@H](CCC(=O)O)NC(=O)[C@H](CC(=O)O)NC1=O)NC(=O)[C@H](C)NC(=O)[C@H](CC(=O)O)NC2=O (stereo partly drawn) [I-141, Ac-PL3-Asp-Ala-B5-Asp-Glu-Ala-Ala-Phe-Val-S8-Phe-2NapA-NH2] | – | 5.45 | 2.43 |
| CC(=O)N1CCC[C@]12CC=CCCCC1(CCCC=CCCCCCC[C@@](C)(C(=O)N[C@@H](Cc3ccccc3)C(=O)N[C@@H](Cc3c[nH]c4ccc(F)cc34)C(=O)N[C@@H](CCC(N)=O)C(N)=O)NC(=O)[C@H](C(C)C)NC(=O)[C@H](Cc3ccccc3)NC(=O)[C@H](C)NC(=O)[C@H](C)NC(=O)[C@H](CCC(=O)O)NC(=O)[C@H](CC(=O)O)NC1=O)NC(=O)[C@H](C)NC(=O)[C@H](CC(=O)O)NC2=O (stereo partly drawn) [I-146, Ac-PL3-Asp-Ala-B5-Asp-Glu-Ala-Ala-Phe-Val-S8-Phe-5FW-Gln-NH2] | – | 1.22 | 2 |

Now from value to molecule:

| CHI Log D (CHI Log D procedure) | EC50 [1] [µM] | chromatographic logD (CHI Log D procedure) | SMILES |
| --- | --- | --- | --- |
| 1.223 | 8.82 | – | CC(=O)N[C@@H](Cc1ccccc1)C(=O)N[C@@H](CC(=O)O)C(=O)N[C@@H](C)C(=O)N[C@]1(C)CCCCCCC=CCOC(=O)N2CC[C@@](C(=O)N[C@@H](Cc3ccccc3)C(=O)N[C@@H](Cc3c[nH]c4ccccc34)C(=O)N[C@@H](CCC(N)=O)C(N)=O)(C2)NC(=O)[C@H](C(C)C)NC(=O)[C@H](Cc2cccc(C(N)=O)c2)NC(=O)[C@H](C)NC(=O)[C@H](C)NC(=O)[C@H](CC(=O)O)NC(=O)[C@H](CC(=O)O)NC1=O [I-109, Ac-Phe-Asp-Ala-R8-Asp-Asp-Ala-Ala-3CBMF-Val-PyrS-Phe-Trp-Gln-NH2] |
| 0.769 | 8.5 | – | CC(=O)N[C@@H](Cc1ccccc1)C(=O)N[C@@H](CC(=O)O)C(=O)N[C@@H](C)C(=O)N[C@]1(C)CCCCCCC=CCOC(=O)N2CC[C@@](C(=O)N[C@@H](Cc3ccc(C(=O)O)cc3)C(=O)N[C@@H](Cc3c[nH]c4ccccc34)C(=O)N[C@@H](CCC(N)=O)C(N)=O)(C2)NC(=O)[C@H](C(C)C)NC(=O)[C@H](Cc2ccccc2)NC(=O)[C@H](C)NC(=O)[C@H](C)NC(=O)[C@H](CC(=O)O)NC(=O)[C@H](CC(=O)O)NC1=O [I-110, Ac-Phe-Asp-Ala-R8-Asp-Asp-Ala-Ala-Phe-Val-PyrS-4COOHF-Trp-Gln-NH2] |
| 0.779 | 7.64 | – | CC(=O)N[C@@H](Cc1ccccc1)C(=O)N[C@@H](CC(=O)O)C(=O)N[C@@H](C)C(=O)N[C@]1(C)CCCCCCC=CCOC(=O)N2CC[C@@](C(=O)N[C@@H](Cc3ccc(C(=O)O)cc3)C(=O)N[C@@H](Cc3c[nH]c4ccccc34)C(=O)N[C@@H](CCC(N)=O)C(N)=O)(C2)NC(=O)[C@H](C(C)C)NC(=O)[C@H](Cc2ccccc2)NC(=O)[C@H](C)NC(=O)[C@H](C)NC(=O)[C@H](CC(=O)O)NC(=O)[C@H](CC(=O)O)NC1=O [I-111, Ac-Phe-Asp-Ala-R8-Asp-Asp-Ala-Ala-Phe-Val-PyrS-4COOHF-Trp-Gln-NH2] |
| 1.17 | 4.94 | – | CC(=O)N[C@@H](Cc1ccccc1)C(=O)N[C@@H](CC(=O)O)C(=O)N[C@@H](C)C(=O)N[C@]1(C)CCCCCCC=CCOC(=O)N2CC[C@@](C(=O)N[C@@H](Cc3ccccc3)C(=O)N[C@@H](Cc3c[nH]c4ccccc34)C(=O)N[C@@H](CCC(N)=O)C(N)=O)(C2)NC(=O)[C@H](C(C)C)NC(=O)[C@H](CCc2ccc(O)cc2)NC(=O)[C@H](C)NC(=O)[C@H](C)NC(=O)[C@H](CC(=O)O)NC(=O)[C@H](CC(=O)O)NC1=O [I-119, Ac-Phe-Asp-Ala-R8-Asp-Asp-Ala-Ala-hTyr-Val-PyrS-Phe-Trp-Gln-NH2] |
